Consider five compounds from patent publication US20100168228A1, “NOVEL CHEMOTHERAPEUTIC AGENTS AGAINST INFLAMMATION AND CANCER” (RELIANCE LIFE SCIENCES PVT. LTD., priority 2006, published 2010).

One test concerns RAW 264.7 cells. Briefly: Nitrite quantification (Griess) in LPS stimulated macrophages. In kind it is cell-based, mouse. To be noted: RAW 264.7 + LPS (200 ng/ml) + 10 μM compound, 24 h; LPS + DMSO control 14.560, basal 0.782. How it is done: NO2^− accumulation was used as an indicator of Nitric Oxide (NO) production in the medium as described previously (Green et al., 1982 Anal Biochem 126, 131-138). […] The isolated supernatants were mixed with an equal volume of Griess reagent (1% sulfanilamide, 0.1% naphthylenediamine dihydrochloride, and 2% phosphoric acid) and incubated at room temperature for 15 min. NaNO2 was used to generate a standard curve, and nitrite production was determined by measuring the optical density at 540 nm.
To estimate the anti-inflammatory effects of all the synthetic molecules listed in this study, we measured the accumulation of nitrite, the stable metabolite of NO, in the culture media using Griess reagent.
To investigate the effect of CAMVE on NO production, we measured the accumulation of nitrite, the stable metabolite of NO, in the culture media using Griess reagent. To investigate the effect of CAMVE on NO production, Raw 264.7 cells, pretreated with indicated concentrations of CAMVE for 1 h were incubated with LPS (250 ng/ml) for 24 h.
For orientation: Griess reagent forms a coloured azo dye with nitrite.

Another test deals with TNFα. Briefly: Bioassay of TNFα production by LPS activated RAW 264.7 macrophages using L929 cell line. The class given is cell-based. To be noted: Mus musculus; L929 + ActD + supernatant from LPS + compound (10 μM) treated RAW 264.7 macrophage; crystal violet; mean ± S.D. of triplicate; read-out: PERCENTAGE CELL SURVIVAL ± S.D. How it is done: Measurement of TNFα in culture medium or supernatant is performed using immunoassay and bioassay. Bioassay was used for the measurement of bioactive TNFα production in the culture medium.
TNFα secretion into the medium by LPS activated macrophage was assayed using L929 tumorigenic murine cells (ATCC) specifically sensitive to TNFα. L929 cell cytotoxicity assay was performed by a modified method (Sano et al., The Journal of Immunology, 1999, 163: 387-395 The Journal of Immunology, 1999, 163: 387-395) based on that described elsewhere (Flick D A, Gifford G E. J Immunol Methods. 1984 Mar. 30; 68(1-2): 167-175). Briefly, the L929 cells (log phase cells) were seeded into a flat bottom 96 well plates (6×10^4/well) in 100 μl volume of RPMI 1640 containing 2% FCS and incubated overnight at 37° C. in a 5% CO2 incubator. A working dilution of the culture supernatant collected from LPS (200 ng/ml) activated macrophage in a volume of 100 μl per well was first tested to obtain 70-75% cytotoxicity equivalent to […] of recombinant TNFα standard to the TNFα sensitive L929 cell line. After incubation of the L929 cells appropriate fixed dilution of the culture supernatant collected from the compound treated (10 μM) wells, containing the LPS stimulated macrophages in a volume of 100 μl with 2 μg/ml Actinomycin D (Act D) was taken and added to the L929 cells and the cells were incubated at room temperature for 15 min followed by 18 h incubation at 37° C. overnight with 5% CO2. On the next day the medium was removed and the cells were stained with 0.2% (w/v) crystal violet for 10 minutes. The wells were gently rinsed with water, and 33% acetic acid (100 μl/well) was added to extract the retained crystal violet. The absorbance at 570 nm was finally measured.
Tumor necrosis factor-α can cause direct cytotoxicity to the lung fibroblast cell line (L929). Bioassay of TNF α is designated on the basis of this cytotoxicity of TNF α, which can be used for the identification of murine TNF α activity in tissue culture supernatants. Culture supernatant collected from the synthetic molecules treated well containing LPS stimulated macrophage modulated the extent of cytotoxicity to the L929 cells (see Table 1).

For the compound `COC(=O)/C=C/c1ccc(OC(=O)/C=C/c2ccc(O)cc2)c(OC(=O)/C=C/c2ccc(O)cc2)c1` [compound 22, methyl [3,4-bis O-(4-hydroxyphenylacryloyl)]phenylacrylate], the “CONCENTRATION OF NITRITE μM ± SD” value in the test on RAW 264.7 cells was 3.982 ± 0.301 µM. For the same compound, the viability at 10 µM with TNFα was found to be 65.6 ± 1.33%.

In the case of `COC(=O)c1ccccc1OC(=O)/C=C/c1ccc(O)cc1` [compound 20, methyl 2-{[(2E)-3-(4-hydroxyphenyl)prop-2-enoyl]oxy}benzoate], the “CONCENTRATION OF NITRITE μM ± SD” value in the test with RAW 264.7 cells was 8.493 ± 0.267 µM. In the test on TNFα, the viability at 10 µM was found to be 51.9%.

Take `C/C=C/c1cc(OC)c2c(c1)[C@@H](C)[C@H](c1ccc(OC(=O)/C=C/c3ccc(O)cc3)c(OC)c1)O2` (racemic) [compound 29, (±)-2β-[4-O-(4-hydroxycinnamoyl)-3-methoxyphenyl]-3α-methyl-7-methoxy-5-[(E)-1-propenyl]-2,3-dihydrobenzofuran]: the “CONCENTRATION OF NITRITE μM ± SD” value in the test on RAW 264.7 cells is 8.382 ± 0.454 µM. Moreover, in the test on TNFα, the viability at 10 µM stood at 50.6 ± 1.49%.

As to `COC(=O)c1ccc(OC(=O)c2cc(O)c(O)c(O)c2)c(OC)c1` [compound 26, 2-methoxy-4-(methoxycarbonyl)phenyl 3,4,5-trihydroxybenzoate], in the test on RAW 264.7 cells, the “CONCENTRATION OF NITRITE μM ± SD” value is 6.138 ± 0.567 µM. For the same compound, the viability at 10 µM with TNFα is 58.8 ± 2.15%.

In the case of `C/C=C/c1ccc(OC(=O)/C=C/c2ccc(O)c(O)c2)c(OC)c1` [compound 7, 2-methoxy-4-[(1E)-prop-1-en-1-yl]phenyl(2E)-3-(3,4-dihydroxyphenyl)acrylate], in the test on RAW 264.7 cells, the “CONCENTRATION OF NITRITE μM ± SD” value was determined as 3.760 ± 0.546 µM. For the same compound, the viability at 10 µM in the test with TNFα turned out to be 65.3 ± 1.11%.
